Assay [1] concerns Scenedesmus acutus. Nature of the assay: Protection against chlorophthalim-induced phytotoxicity in Scenedesmus acutus in light condition assessed as reduction of ethane formation per ml of packed cell volume after 16 hr (reference value: 11.82 nM). In kind it is functional.
Assay [2] deals with Scenedesmus acutus. In words: Protection against chlorophthalim-induced phytotoxicity in Scenedesmus acutus in light condition assessed as reduction of protoporphyrin-9 accumulation per ml of packed cell volume after 2 hr. It counts as functional.
The subject of assay [3] is Scenedesmus acutus. In words: Protection against chlorophthalim-induced phytotoxicity in Scenedesmus acutus in light condition assessed as increase of chlorophyll content after 16 hr (reference value: 0.94 ug/ml). In kind it is functional.
Assay [4] deals with Scenedesmus acutus. In words: Protection against oxyfluorfen-induced phytotoxicity in Scenedesmus acutus in light condition assessed as reduction of protoporphyrin-9 accumulation per ml of packed cell volume after 2 hr. It counts as functional.
Assay [5] has as its system Scenedesmus acutus. In words: Protection against oxyfluorfen-induced phytotoxicity in Scenedesmus acutus in light condition assessed as increase of chlorophyll content after 16 hr (reference value: 0.94 ug/ml). It counts as functional.
Assay [6] has as its system Scenedesmus acutus. In words: Phytotoxicity against Scenedesmus acutus in light condition assessed as reduction of chlorophyll content after 16 hr (reference value: 20.25 ug/ml). In kind it is functional.
Assay [7] has as its system Scenedesmus acutus. Nature of the assay: Phytotoxicity against Scenedesmus acutus in dark condition assessed as effect on protoporphyrin-9 accumulation per ml of packed cell volume at 10^-5 M after 16 hr. In kind it is functional, organism-based.
In assay [8] the test system is Scenedesmus acutus. In words: Protection against oxyfluorfen-induced phytotoxicity in Scenedesmus acutus in light condition assessed as reduction of ethane formation per ml of packed cell volume after 16 hr (reference value: 11.82 nM). In kind it is functional.
The subject of assay [9] is Scenedesmus acutus. In words: Phytotoxicity against Scenedesmus acutus in light condition assessed as effect on protoporphyrin-9 accumulation per ml of packed cell volume at 10^-5 M after 16 hr. It counts as functional, organism-based.
For assay [10], the system named is Scenedesmus acutus. Nature of the assay: Protection against chlorophthalim-induced phytotoxicity in Scenedesmus acutus in light condition assessed as cell density per micro liter of packed cell volume after 16 hr (reference value: 2.1 ml). In kind it is functional. On the set-up: unit not given here.
In assay [11] the test system is Scenedesmus acutus. Nature of the assay: Protection against oxyfluorfen-induced phytotoxicity in Scenedesmus acutus in light condition assessed as cell density per micro liter of packed cell volume after 16 hr (reference value: 2.1 ml). It counts as functional. On the set-up: unit not given here.
The test system of assay [12] is Scenedesmus acutus. In words: Phytotoxicity against Scenedesmus acutus in light condition assessed as cell density per micro liter of packed cell volume after 16 hr (reference value: 3.4 ml). It counts as functional. Also on record: unit not given here.

Activity calls are given as the source filed them. The rule behind the calls is not given here.

As to `CN(C)C(=O)Nc1ccc(Cl)c(Cl)c1` [DCMU], the Activity stood at 0.41 nmol/mL in [1]; 18.86 nmol/mL in assay [2]; 11.56 µg/mL in assay [3]; 29.12 nM in assay [4]; 14.57 µg/mL in assay [5]; 17.66 µg/mL in assay [6].
Consider `CCNc1nc(Cl)nc(NCC)n1` [SIMAZINE], for which the Activity in assay [1] turned out to be 4.24 nmol/mL; in assay [2], 19.15 nmol/mL; in [3], 10.52 µg/mL; in assay [4], 52.7 nM; in [8], 2.82 nM; in [5], 13.05 µg/mL. Moreover, the Activity in assay [6] amounted to 16.86 µg/mL. Besides, the result in [7] and in [9] was inactive.
Consider `CCOc1cc(Oc2ccc(C(F)(F)F)cc2Cl)ccc1[N+](=O)[O-]` [OXYFLUORFEN], for which the Activity in assay [4] worked out at 102.38 nM; in assay [8] it was 11.82 nM; in assay [5], 0.94 µg/mL.
Take `CCNc1nc(NCC)nc(C(F)(F)F)n1`: the Activity was found to be 3.2 nmol/mL in assay [1]; 38.65 nmol/mL in [2]; 11.04 µg/mL in assay [3]; 2.4 in [10]; 31.24 nM in assay [4]; 1.26 nM in [8]. The Activity in [5] was 13.53 µg/mL; in [11], 2.4; in [6] it was 16.7 µg/mL; in assay [12], 2.6. The outcome in assay [7] and in assay [9] was inactive.
As to `CCNc1nc(NCC)nc(SC)n1` [SIMETRYN], the Activity in assay [1] was found to be 1.7 nmol/mL; in assay [2] it was 31.92 nmol/mL; in assay [3], 10.52 µg/mL; in assay [4] it was 30.67 nM; in [8], 0.4 nM; in [5], 14.46 µg/mL. The Activity in assay [6] came out at 17.74 µg/mL. In addition, the outcome in assay [7] and in [9] was inactive.
As for `CCNc1nc(C)nc(NCC)n1`, the Activity in [1] came out at 12.92 nmol/mL; in assay [2] it was 67.45 nmol/mL; in [3], 1.37 µg/mL; in [10], 2.3; in [4], 57.97 nM; in assay [8], 11.93 nM. The Activity in assay [5] turned out to be 1.05 µg/mL; in assay [11] it was 2.3; in assay [6], 19.09 µg/mL; in assay [12], 3. Further, the outcome in assay [7] and in assay [9] was inactive.
Take `CCNc1nc(NCC)nc(-c2ccccc2)n1`: the Activity in [1] turned out to be 13.64 nmol/mL; in assay [2], 133.96 nmol/mL; in assay [3] it was 0.46 µg/mL; in assay [10] it was 2.3; in [4] it was 69.9 nM; in assay [8] it was 11.93 nM. Further, the Activity in assay [5] was found to be 0.67 µg/mL; in assay [11] it was 2.2; in [6], 19.08 µg/mL; in assay [12], 3.2. Further, the outcome in assay [7] and in assay [9] was inactive.
For the molecule `O=C1C2=C(CCCC2)C(=O)N1c1ccc(Cl)cc1` [CHLOROPHTHALIUM], the Activity in [1] stood at 12.73 nmol/mL; in [2], 128.65 nmol/mL; in assay [3], 0.99 µg/mL; in assay [10], 2.3.
With `CCNc1nc(NCC)nc(C(Cl)(Cl)Cl)n1`, the Activity in assay [1] was 3.63 nmol/mL; in [2] it was 27.65 nmol/mL; in assay [3] it was 10.48 µg/mL; in assay [10], 2.4; in [4] it was 37.08 nM; in assay [8] it was 1.63 nM. Moreover, the Activity in [5] came to 13.31 µg/mL; in [11], 2.2; in [6], 19.23 µg/mL; in assay [12] it was 2.6. Also, the outcome in assay [7] and in assay [9] was inactive.
